# Assay results published in patent publication US9663764B2, “Generation of cardiomyocytes from human pluripotent stem cells” (Wisconsin Alumni Research Foundation, priority 2011, dated 2017).
# Columns and labels:
# Assay type in all cases: cell-based, human
# H9 hESCs = experiment: Cardiac differentiation via EBs after CH pretreatment, contracting outgrowths; settings: 0-8 μM CH for three days prior to EB formation; spontaneously-contracting outgrowths
# Protocol: Cardiac Differentiation Via EBs: hPS cells were passaged onto MEFs (˜13,000 cells/cm^2) and cultured in hESC medium for 2 days followed by another 3 days in hESC medium supplemented with BIO (Sigma) or CHIR99021 (Selleck). To form EBs, hPS cell aggregates generated by […] were cultured in low-attachment plates overnight in RPMI plus 20% KnockOut serum replacer. The next day, the EBs were cultured in EB20 (RPMI plus 20% FBS) for 4 days in suspension. EBs were then plated onto 0.1% gelatin-coated 6-well culture plates at 50-100 EBs/well, and cultured in EB20 medium. After 10 days of differentiation, the FBS concentration was reduced to 2% EB2 (RPMI plus 2% FBS). The number of contracting EBs was visually assessed using a microscope with a 37° C. heated stage. […] Undifferentiated H9 hESCs were cultured in the presence of 0-8 μM CH for three days prior to EB formation. EBs were cultured in suspension for 4 days before transferring to 0.1% gelatin coated plates. […] The inventors also applied the GSK3 inhibitors CH and BIO to undifferentiated H9 hESCs three days prior to directed differentiation to cardiomyocytes via Activin A and BMP4.
# [1] = system: 19-9-11 shcat-2 and scramble lines; experiment: Nanog/Isl1 immunostaining of CH-treated 19-9-11 shcat-2 and scramble lines
# Protocol: Immunostaining: Cells were fixed with 4% paraformaldehyde for 15 min at room temperature and then stained with primary and secondary antibodies in PBS plus 0.4% Triton X-100 and 5% non-fat dry milk (Bio-Rad). Nuclei were stained with Gold Anti-fade Reagent with DAPI (Invitrogen). An epifluorescence microscope (Leica DM IRB) with a QImaging® Retiga 4000R camera was used for imaging analysis. To test whether induction of cardiomyocyte differentiation by GSK3 inhibitors requires β-catenin, the inventors treated the shcat-2 and scramble 19-9-11 lines with CH in mTeSR1 medium. While the shcat-2 line maintained an undifferentiated morphology, the scramble line appeared to undergo differentiation (FIG. 2E), similar to non-transduced lines treated with CH (FIGS. 1B and 2B). Induction of differentiation following CH treatment in the scramble control was further indicated by diminished SOX2 and NANOG expression at day 4 (FIG. 3C). […] After 4 days of CH treatment in mTeSR1, the percentage of cells expressing Oct4 decreased to 61% in the scramble line, while 98% of the shcat-2 cells expressed Oct4 (FIG. 3D). […] To better understand early mesoderm induction via GSK3 inhibition, the inventors analyzed expression of the early mesoderm gene T in scramble and shcat-2 19-9-11 lines. As CH concentration increased, the ratio of T expression in scramble to the shcat-2 line increased (FIG. 3E). […]
# [2] = system: 19-9-11 ishcat-1 and ishcat-2 cells; experiment: Growth factor free cardiac differentiation by CH followed by dox-induced β-catenin shRNA, cTnT flow cytometry
# Protocol: cardiac directed differentiation via small molecules: Cells were dissociated and plated as described in the Activin/BMP4 protocol. When hPS cells maintained on Matrigel® or Synthemax plates achieved confluence, cells were treated with CH in RPMI/B27-insulin for 24 hr (day 0 to day 1). The medium was changed to RPMI/B27-insulin, followed by 2 μg/ml dox treatment at different times between day 1 and day 5 for transgenic cell lines. For genetically unmodified lines, 5 μM IWP2 (Tocris) or IWP4 (Stemgent) was added at day 3 and removed during the day 5 medium change. Cells were maintained in the RPMI/B27 starting from day 7, with the medium changed every 3 days. Flow Cytometry: Cells were dissociated into single cells and then fixed with 1% paraformaldehyde for 20 min at room temperature and stained with primary and secondary antibodies in PBS plus 0.1% Triton X-100 and 0.5% BSA. For the cell proliferation assay, a 17-hour pulse of BrdU was performed to identify dividing cardiomyocytes (Zhang et al., Circ. Res. 104, e30-41 (2009)). Data were collected on a FACSCaliber flow cytometer (Beckton Dickinson) and analyzed using FlowJo. Our results and prior studies (Ren et al., J. Mol. Cell. Cardiol. 51:280-287 (2011); Tran et al., Stem Cells 27:1869-1878 (2009); Wang et al., A.C.S. Chem. Biol. 6, 192-197 (2011); […] et al., Circ Res. 109:360-364 (2011)) indicate that induction of canonical Wnt signaling early and suppression of canonical Wnt signaling at later stages of differentiation enhance yield of cardiomyocytes. The inventors next sought to determine whether modulating Gsk3 and canonical Wnt signaling alone was sufficient to induce cardiogenesis. Undifferentiated hPS cells were cultured in RPMI/B27-insulin medium containing CH. CH was removed by medium exchange at day 1 and dox was added to the medium at various time points between […] and day 4. At day 5, the medium was replaced with RPMI/B27-insulin (FIG. 6A) and cardiomyocyte differentiation was assessed at day 15 by the percentage and yield of cTNT and/or MF20 expressing cells. In the 19-9-11 […]-1 line, 12 μM CH produced the most cTNT+ cells at day 15 without additional dox-induced β-catenin knockdown (FIG. 7A). The inventors then investigated the effect of the timing of dox treatment following addition of 12 μM CH. Addition of dox 36 hours following initiation of differentiation generated 95% cTNT+ cells with yields of approximately 15 cTNT+ cells per input iPSC (FIGS. 6B and 7B). A high yield of cTNT+ cells was also obtained using 19-9-11 […]-2 and three additional hPS cell lines (IMR90C4, 6-9-9, and H9) transduced with inducible β-catenin shRNA […]-1 (FIG. 7C).
# [3] = 12 μM CH, dox added 36 hours following initiation of differentiation, day 15
smiles,measurement,setting,value
Cc1c[nH]c(-c2cnc(NCCNc3ccc(C#N)cn3)nc2-c2ccc(Cl)cc2Cl)n1 [CH],CH concentration at which efficiency of cardiomyocyte differentiation peaked,H9 hESCs,2 to 4 µM
same,Nanog/Isl1 immunostaining,"[1]; scramble cell line, 15 μM CH in mTeSR1 for 4 days",substantial numbers of Nanog−/Isl1+ cells
same,Nanog/Isl1 immunostaining,[1]; shcat-2 cells treated with CH,only Nanog+/Isl1− cells
same,purity of cardiomyocytes,"[2]; 12 μM CH followed by dox treatment at 36 hours, >50 independent experiments",> 90%
same,cTNT+ cells,[2]; [3],95%
same,yield of cTNT+ cells,[2]; [3],approximately 15 cTNT+ cells per input iPSC
same,CH concentration that produced the most cTNT+ cells at day 15,"[2]; 19-9-11 ishcat-1 line, without dox-induced β-catenin knockdown",12 µM
